The values that follow come from patent US20240116985A1, “STAPLED PEPTIDES AND METHODS THEREOF” (priority 2020, published 2024).

Converted amounts (≈) assume the structure as drawn. Where two headings read alike, the source gives them in different places.

Data set [1] deals with T1, full-length beta-Catenin (Uniprot ID P35222) (Homo sapiens, UniProt P35222).
T1 construct: 10 nM full-length beta-Catenin (Uniprot ID P35222)
T1 sequence (P35222 1-781): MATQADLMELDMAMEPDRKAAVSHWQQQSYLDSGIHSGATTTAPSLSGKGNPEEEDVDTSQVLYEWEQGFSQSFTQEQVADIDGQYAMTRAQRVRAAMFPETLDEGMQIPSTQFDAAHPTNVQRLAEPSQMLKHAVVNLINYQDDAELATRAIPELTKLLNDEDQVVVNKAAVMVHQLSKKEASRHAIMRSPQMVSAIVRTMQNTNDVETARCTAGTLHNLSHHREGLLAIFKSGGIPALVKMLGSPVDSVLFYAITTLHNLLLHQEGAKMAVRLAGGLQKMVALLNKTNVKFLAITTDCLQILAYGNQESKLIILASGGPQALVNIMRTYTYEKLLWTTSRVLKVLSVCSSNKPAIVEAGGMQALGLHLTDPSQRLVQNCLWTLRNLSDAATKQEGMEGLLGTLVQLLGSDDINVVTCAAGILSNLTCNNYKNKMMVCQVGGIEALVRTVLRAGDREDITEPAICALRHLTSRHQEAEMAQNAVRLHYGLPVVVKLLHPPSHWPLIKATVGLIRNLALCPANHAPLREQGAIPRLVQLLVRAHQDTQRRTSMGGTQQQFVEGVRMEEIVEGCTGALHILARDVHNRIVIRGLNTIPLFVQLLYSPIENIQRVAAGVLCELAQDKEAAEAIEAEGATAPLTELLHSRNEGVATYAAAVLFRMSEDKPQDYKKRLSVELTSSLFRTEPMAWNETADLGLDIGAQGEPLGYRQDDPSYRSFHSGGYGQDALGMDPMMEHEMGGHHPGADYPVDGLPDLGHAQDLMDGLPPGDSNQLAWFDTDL
The data set is described as follows: Fluorescence polarization IC50 (beta-catenin / 5FAM-TCF4 10-53 competition). It counts as binding. Particulars: read-out: beta-Catenin FP IC50.

The nature of another data set: CHI Log D procedure. The data set is classed as physicochemical.
A short description of a further data set: Solubility in PBS. The data set is classed as physicochemical. Summed up: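 PBS sample ultracentrifuged; supernatant run on HPLC vs. 50 μM peptide in DMSO standard. Solubility = (PBS peak area / DMSO peak area) × 50 uM.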
The target in data set [2] is T2, beta-catenin/TCF4 engagement (Homo sapiens, UniProt P35222).
T2 construct: expressed in transfected cells; host or cells: HEK293
T2 sequence (P35222 1-781): T1 sequence (P35222 1-781)
The data set is described as follows: Nano-BRET target engagement assay (B-cat-Halo & TCF4-Luc in HEK293 cells). It counts as cell-based.

For the compound `CCCCCCCC(=O)NCCCC[C@@H]1NC(=O)[C@H](C)NC(=O)[C@H](CC(=O)O)NC(=O)[C@H](CC(=O)O)NC(=O)C2(CCCC=CCCCOC(=O)N3CC[C@@](C(=O)N[C@@H](Cc4ccsc4)C(=O)N[C@@H](Cc4csc5ccccc45)C(=O)N[C@@H](CCC(N)=O)C(N)=O)(C3)NC(=O)[C@H](CC(N)=O)NC(=O)[C@H](Cc3ccccc3)NC1=O)CCCC=CC[C@]1(CCCN1C(C)=O)C(=O)N[C@@H](CC(=O)O)C(=O)N[C@@H](CC(C)(C)C)C(=O)N2` (stereo partly drawn) [I-898, Ac-PL3-Asp-Npg-B5-Asp-Asp-Ala-[Oct]Lys-Phe-Asn-PyrS2-3Thi-BztA-Gln-NH2], the results for the IC50 in data set [1] and in data set [2] (read-out: NanoBRET Abs IC50) were 0.016 µM and greater than 20 µM, respectively. In “CHI Log D procedure” (pH 7.4, CHI Log D), this compound gave a chromatographic logD of 2.2. This compound also returned a Solubility in “Solubility in PBS” (Solubility (uM)) of 42 µM (≈ 88.3 µg/mL).
In the same order, the values of `CC(=O)N1CCC[C@]12CC=CCCCC1(CCCC=CCCCOC(=O)N3CC[C@@](C(=O)N[C@@H](Cc4ccsc4)C(=O)N[C@@H](Cc4csc5ccccc45)C(=O)N[C@@H](CCC(N)=O)C(N)=O)(C3)NC(=O)[C@H](CC(N)=O)NC(=O)[C@H](Cc3ccccc3)NC(=O)[C@H](CCCCNC(=O)C34CC5CC(CC(C5)C3)C4)NC(=O)[C@H](C)NC(=O)[C@H](CC(=O)O)NC(=O)[C@H](CC(=O)O)NC1=O)NC(=O)[C@H](CC(C)(C)C)NC(=O)[C@H](CC(=O)O)NC2=O` (stereo partly drawn) [I-899, Ac-PL3-Asp-Npg-B5-Asp-Asp-Ala-[AdamantC]Lys-Phe-Asn-PyrS2-3Thi-BztA-Gln-NH2] are 0.028 µM, greater than 20 µM, 2.26 and 40 µM (≈ 85.5 µg/mL).
In the same order, the values of `CC(=O)N1CCC[C@]12CC=CCCCC1(CCCC=CCCCOC(=O)N3CC[C@@](C(=O)N[C@@H](Cc4ccsc4)C(=O)N[C@@H](Cc4csc5ccccc45)C(=O)N[C@@H](CCC(N)=O)C(N)=O)(C3)NC(=O)[C@H](CC(N)=O)NC(=O)[C@H](Cc3ccccc3)NC(=O)[C@H](CCCCNC(=O)C34CC5(C)CC(C)(CC(C)(C5)C3)C4)NC(=O)[C@H](C)NC(=O)[C@H](CC(=O)O)NC(=O)[C@H](CC(=O)O)NC1=O)NC(=O)[C@H](CC(C)(C)C)NC(=O)[C@H](CC(=O)O)NC2=O` (stereo partly drawn) [I-900, Ac-PL3-Asp-Npg-B5-Asp-Asp-Ala-[Me3AdamantC]Lys-Phe-Asn-PyrS2-3Thi-BztA-Gln-NH2] are 0.033 µM, greater than 20 µM, 2.74 and 41 µM (≈ 89.4 µg/mL).
In the same order, the values of `CC(=O)N1CCC[C@]12CC=CCCCC1(CCCC=CCCCOC(=O)N3CC[C@@](C(=O)N[C@@H](Cc4ccsc4)C(=O)N[C@@H](Cc4csc5ccccc45)C(=O)N[C@@H](CCC(N)=O)C(=O)N[C@@H](CCCCNC(=O)CCc4cccc5ccccc45)C(N)=O)(C3)NC(=O)[C@H](CC(N)=O)NC(=O)[C@H](Cc3ccccc3)NC(=O)[C@H](C)NC(=O)[C@H](C)NC(=O)[C@H](CC(=O)O)NC(=O)[C@H](CC(=O)O)NC1=O)NC(=O)[C@H](CC(C)(C)C)NC(=O)[C@H](CC(=O)O)NC2=O` (stereo partly drawn) [I-903, Ac-PL3-Asp-Npg-B5-Asp-Asp-Ala-Ala-Phe-Asn-PyrS2-3Thi-BztA-Gln-[1NapPr]Lys-NH2] are 0.033 µM, 7.8 µM, 2.38 and 43 µM (≈ 95.8 µg/mL).
As for `CC(=O)N1CCC[C@]12CC=CCCCC1(CCCC=CCCCOC(=O)N3CC[C@@](C(=O)N[C@@H](Cc4ccsc4)C(=O)N[C@@H](Cc4csc5ccccc45)C(=O)N[C@@H](CCC(N)=O)C(=O)N[C@@H](CCCCNC(=O)C(C)(c4ccccc4)c4ccccc4)C(N)=O)(C3)NC(=O)[C@H](CC(N)=O)NC(=O)[C@H](Cc3ccccc3)NC(=O)[C@H](C)NC(=O)[C@H](C)NC(=O)[C@H](CC(=O)O)NC(=O)[C@H](CC(=O)O)NC1=O)NC(=O)[C@H](CC(C)(C)C)NC(=O)[C@H](CC(=O)O)NC2=O` (stereo partly drawn) [I-904, Ac-PL3-Asp-Npg-B5-Asp-Asp-Ala-Ala-Phe-Asn-PyrS2-3Thi-BztA-Gln-[22PhPr]Lys-NH2], the concentration for half-maximal inhibition (IC50) in data set [1] was 0.054 µM; in data set [2] (read-out: NanoBRET Abs IC50), 20 µM. Also, in the data set “CHI Log D procedure” (pH 7.4), the chromatographic logD was 2.65. Further, the Solubility in “Solubility in PBS” worked out at 30 µM (≈ 67.6 µg/mL).
Consider `CC(=O)N1CCC[C@]12CC=CCCCC1(CCCC=CCCCOC(=O)N3CC[C@@](C(=O)N[C@@H](Cc4ccsc4)C(=O)N[C@@H](Cc4csc5ccccc45)C(=O)N[C@@H](CCC(N)=O)C(=O)N[C@@H](CCCCNC(=O)CN4CCN(C)CC4)C(N)=O)(C3)NC(=O)[C@H](CC(N)=O)NC(=O)[C@H](Cc3ccccc3)NC(=O)[C@H](C)NC(=O)[C@H](C)NC(=O)[C@H](CC(=O)O)NC(=O)[C@H](CC(=O)O)NC1=O)NC(=O)[C@H](CC(C)(C)C)NC(=O)[C@H](CC(=O)O)NC2=O` (stereo partly drawn) [I-906, Ac-PL3-Asp-Npg-B5-Asp-Asp-Ala-Ala-Phe-Asn-PyrS2-3Thi-BztA-Gln-MePipAc Lys-NH2], for which the figures for the IC50 in data set [1] and in data set [2] (read-out: NanoBRET IC50) were 0.008 µM and greater than 20 µM, respectively. This compound also returned a chromatographic logD in the data set “CHI Log D procedure” (pH 7.4, CHI Log D) of 1.75. For the same compound, the solubility at 15 min in “Solubility in PBS” (Solubility (uM)) is 46 µM (≈ 101 µg/mL).
For `CC(=O)N1CCC[C@]12CC=CCCCC1(CCCC=CCCCOC(=O)N3CC[C@@](C(=O)N[C@@H](Cc4ccsc4)C(=O)N[C@@H](Cc4csc5ccccc45)C(=O)N[C@@H](CCC(N)=O)C(=O)N[C@@H](CCCCNC(=O)C4CCN(C5CCN(C)CC5)CC4)C(N)=O)(C3)NC(=O)[C@H](CC(N)=O)NC(=O)[C@H](Cc3ccccc3)NC(=O)[C@H](C)NC(=O)[C@H](C)NC(=O)[C@H](CC(=O)O)NC(=O)[C@H](CC(=O)O)NC1=O)NC(=O)[C@H](CC(C)(C)C)NC(=O)[C@H](CC(=O)O)NC2=O` (stereo partly drawn) [I-907, Ac-PL3-Asp-Npg-B5-Asp-Asp-Ala-Ala-Phe-Asn-PyrS2-3Thi-BztA-Gln-[MeBipipAc]Lys-NH2], the results for the IC50 in data set [1] and in data set [2] (read-out: NanoBRET Abs IC50) were 0.009 µM and 27.8 µM, respectively. In “CHI Log D procedure” (pH 7.4, CHI Log D), this compound came in with a chromatographic logD of 1.8. Moreover, the concentration in solution in the data set “Solubility in PBS” (Solubility (uM)) (Solubility) was 20 µM (≈ 45.1 µg/mL).
`CC(=O)N1CCC[C@]12CC=CCCCC1(CCCC=CCCCOC(=O)N3CC[C@@](C(=O)N[C@@H](Cc4ccsc4)C(=O)N[C@@H](Cc4csc5ccccc45)C(=O)N[C@@H](CCC(N)=O)C(=O)N[C@@H](CCCCNC(=O)c4ccc(CN5CCN(C)CC5)cc4)C(N)=O)(C3)NC(=O)[C@H](CC(N)=O)NC(=O)[C@H](Cc3ccccc3)NC(=O)[C@H](C)NC(=O)[C@H](C)NC(=O)[C@H](CC(=O)O)NC(=O)[C@H](CC(=O)O)NC1=O)NC(=O)[C@H](CC(C)(C)C)NC(=O)[C@H](CC(=O)O)NC2=O` (stereo partly drawn) [I-908, Ac-PL3-Asp-Npg-B5-Asp-Asp-Ala-Ala-Phe-Asn-PyrS2-3Thi-BztA-Gln-[4MePipBz]Lys-NH2]: the IC50 was found to be 0.01 µM in data set [1] and 26 µM in data set [2] (read-out: NanoBRET Abs IC50). This compound registered a chromatographic logD in “CHI Log D procedure” (pH 7.4, CHI Log D) of 1.82. This compound also registered a Solubility in “Solubility in PBS” (Solubility (uM)) of 44 µM (≈ 99.6 µg/mL).
The corresponding values for `CC(=O)N1CCC[C@]12CC=CCCCC1(CCCC=CCCCOC(=O)N3CC[C@@](C(=O)N[C@@H](Cc4ccsc4)C(=O)N[C@@H](Cc4csc5ccccc45)C(=O)N[C@@H](CCC(N)=O)C(=O)N[C@@H](CCCCNC(=O)c4ccc(CN5CCOCC5)cc4)C(N)=O)(C3)NC(=O)[C@H](CC(N)=O)NC(=O)[C@H](Cc3ccccc3)NC(=O)[C@H](C)NC(=O)[C@H](C)NC(=O)[C@H](CC(=O)O)NC(=O)[C@H](CC(=O)O)NC1=O)NC(=O)[C@H](CC(C)(C)C)NC(=O)[C@H](CC(=O)O)NC2=O` (stereo partly drawn) [I-909, Ac-PL3-Asp-Npg-B5-Asp-Asp-Ala-Ala-Phe-Asn-PyrS2-3Thi-BztA-Gln-[MeMorphBz]Lys-NH2] are 0.008 µM, 28.4 µM, 1.93 and 44 µM (≈ 99 µg/mL).
In the same order, the values of `CC(=O)N1CCC[C@]12CC=CCCCC1(CCCC=CCCCOC(=O)N3CC[C@@](C(=O)N[C@@H](Cc4ccsc4)C(=O)N[C@@H](Cc4csc5ccccc45)C(=O)N[C@@H](CCC(N)=O)C(=O)N[C@@H](CCCCNC(=O)c4ccc(CN(C)C)cc4)C(N)=O)(C3)NC(=O)[C@H](CC(N)=O)NC(=O)[C@H](Cc3ccccc3)NC(=O)[C@H](C)NC(=O)[C@H](C)NC(=O)[C@H](CC(=O)O)NC(=O)[C@H](CC(=O)O)NC1=O)NC(=O)[C@H](CC(C)(C)C)NC(=O)[C@H](CC(=O)O)NC2=O` (stereo partly drawn) [I-910, Ac-PL3-Asp-Npg-B5-Asp-Asp-Ala-Ala-Phe-Asn-PyrS2-3Thi-BztA-Gln-[Me2NCBz]Lys-NH2] are 0.01 µM, 29.8 µM, 1.84 and 40 µM (≈ 88.3 µg/mL).
